Like-named read-outs stand apart in the source and are kept apart here.
Key:
hMT1 [1] = target: T1, hMT1 (Homo sapiens, UniProt P48039); assay: cAMP assay (GloSensor), isoproterenol-stimulated cAMP in HEK cells; type: cell-based; parameters: expressed in transfected cells; host or cells: HEK-T (HEK-293 T) cells, co-transfected with GloSensor DNA; settings: for hMT1 pEC50: FIG. 3D-3F, transiently expressed receptor, isoproterenol-stimulated cAMP production; for inverse agonist efficacy: at MT1; for selectivity for MT1 over MT2: cAMP, inverse agonists
Experimental: HEK-293 T cells were maintained with complete Dulbecco's modified Eagle's medium (DMEM), which is composed of 10% fetal bovine serum (FBS), 2 mM L-glutamine, 100 units/ml penicillin G, 100 μg/ml streptomycin at 37° C. in the presence of 5% CO2
MT1 and MT2 receptors were tested using Promega's spilt luciferase based GboSensor cAMP biosensor technology. HEK-T cells were plated in 15 cm cell culture dish (at a density of 18 million cells) containing DMEM composed of 10% dialyzed FBS, 2 mM L-glutamine, 100 units/ml penicillin G, 100 μg/ml streptomycin for 4-6 hour. Then, cells were co-transfected with 8 μg of construct which encodes either MT1 or MT2 (de-Tangonized constructs) and […] of Glosensor DNA. Next day, transfected cells were seeded into poly-L-lysinecoated 384-well white clear bottom cell culture plates with complete DMEM with 1% dialized FBS at a density of 20,000 cells per well for another 24 h. The next day, cell medium were discarded and loaded with 20 μl of assay buffer (1×HBSS, 20 mM HEPES, pH 7.4, 0.1% BSA). To measure agonist activity of MT1 or MT2 receptor, 10 μl of test compound solution at 3× final concentration was added for 15 minutes followed by addition of 10 μl of luciferin/isoproterenol mixture (at a final concentration of 4 mM and 200 nM respectively) for another 15 mins for luminescence quantification. Then, plates were counted using SpectraMax luminescence reader (Molecular Device). Data were analyzed using GraphPad Prism 6.0.

C3H/HeN mice = assay: Re-entrainment of running wheel activity after 6 h advance of dark onset (jet-lag model); type: in vivo; settings: 30 μg/mouse s.c., in words; for rate of re-entrainment to the new light-dark cycle: 3 days, WT
Source text: Male and female C3H/HeN (C3H) wild-type (WT), MT1 knockout (MT1KO), and MT2 knockout (MT2KO) mice (average 6.28 months) used in this study were raised in our breeding colony at University at Buffalo. […] Genotype was confirmed using tail samples at the end of each experiment and was verified periodically during the tenure of the colony. The strains of mice in our breeding colony were re-derived periodically by backcrossing with WT mice to reduce genetic drift.
Mice were group housed (3-5 per cage) with corncob bedding in polycarbonate translucent cages (30×19 cm) and maintained in a 14/10 light-dark (LD) cycle (Zeitgeber time 0 or ZT0 corresponds to Lights ON and ZT 14 to Lights OFF) in temperature and humidity controlled rooms with ad libitum access to food and water in the Laboratory Animal Facility at the University at Buffalo. Light levels were 200-300 lux at the level of the cage. Treatments and animal care performed in the dark were under a dim red safelight (15 watts, Kodak 1A filter) with illuminance of less than 3-5 lux (Benloucif, S. & Dubocovich, M. L. J Biol Rhythms 11, 113-125, (1996). All experimental procedures using mice were conducted in accordance with guidelines set forth by the National Institutes of Health and approved by the University at Buffalo Institutional Animal Care and Use Committee.
Circadian rhythm phase was determined for each mouse using the onset of running wheel activity defined as CT12 (Circadian Time 12). Running wheel activity was measured continuously via magnetic microswitches detecting wheel revolutions with a computer equipped with Clocklab data collection Software™ (Actimetrics: Wilmette, Ill.). All actigraphy data was visualized and analyzed using ClockLab™ and MATLAB™ software. All mice were individually housed in cages (33×15 cm) equipped with running wheels in light-tight ventilated cabinets with controlled temperature and LD cycles (Phenome Technologies: Skokie, Ill.). Male and female mice were housed in separate cabinets for all experiments.
Male and female C3H WT, MT1KO, and MT2KO mice (3 to 6 months) were maintained under a 12:12 LD cycle for at least 2 weeks prior experimental manipulations to allow stable entrainment to dark onset before advance of the LD cycle. Actigraphy data was recorded as described above and all experiment protocols performed as described (Dubocovich, M. L. et al., J Pineal Res 39, 113-120, 2005). On the first day of treatment, the dark onset was advanced 6 h. […] Post treatment, mice were given 14-20 days to re-entrain running wheel activity onsets to the new dark onset. Using exported running wheel activity onsets from actograms, onset hours advanced each day were determined by subtracting this value each day from the average onset of running wheel activity for 3 days prior to treatment for each mouse. Further, using the data from this calculation combined with visualization of actograms, the number of days to reach stable re-entrainment was determined for each mouse.
All statistical analyses as described in further detail for each experiment were conducted using GraphPad Prism 8™ (La Jolla, Calif.). All data sets were visualized for normality using QQ plots of predicted vs. actual residuals. Actigraphy data was generated for visualization blind to treatment prior to the quantification and statistical analysis stages. […] Data in FIGS. 4F & 4G were compared via a two-way ANOVA (3×2: genotype x treatment) with Tukey's post hoc analyses (P<0.05). […]

318 other GPCRs = assay: PRESTO-Tango GPCR-ome counter-screen, agonist mode; type: cell-based; settings: arrestin recruitment Tango, in words
Experimental: Screening of compounds in the PRESTO-Tango GPCR-ome was accomplished as previously described (Kroeze, supra). with several modifications. First, HTLA cells were plated in DMEM with 10% FBS and 10 U/mL penicillin-streptomycin. Next, the cells were transfected using an in-plate PEI method (Longo, P. A. et al., Methods Enzymol 529, 227-240, 2013). PRESTO-Tango receptor DNAs were resuspended in OptiMEM and hybridized with PEI prior to dilution and distribution to 384-well plates and subsequent addition to cells. After overnight incubation, drugs were added to cells without replacement of the medium. The remaining steps of the PRESTO-Tango protocol were followed as previously described.

hMT1 [2] = target: T1, hMT1; assay: 2-[125I]-iodomelatonin competition binding, CHO cell membranes; settings: read-out: Ki at MT1
Experimental: For receptor binding studies, '7447 was dissolved in 50% DMSO/50% ethanol for 13 mM stock solution, diluted 1/10 in 100% ethanol then 1/10 again in 50% ethanol/50% Tris-HCl buffer. Both '3384 and '4226 were dissolved in 100% ethanol for 13 mM stock solutions and then diluted 1/10 in 50% ethanol/50% Tris-HCl buffer. Further dilutions were done in Tris-HCl buffer.
Assays were incubated for 1 hour at 25° C. Bound radioligand was separated from freeby rapidvacuum filtration using glass microfiber filters (Whatman, Krackeler Scientific, Inc., Albany N.Y., USA) saturated in 0.5% polyethylenimine solution.
Affinity shifts or lack thereof with G protein inactivation indicate apparent efficacy (Lefkowitz, R. J. et al., J Biol Chem 251, 4686-4692, 1976) as ligands are classified as agonists (ΔpKi% MLT>20%), antagonists (ΔpKi% MLT<20%, >−20%), or inverse agonists (ΔpKi% MLT<−20%) accordingly.

[3] = Schild analysis, competitive antagonism of melatonin
[4] = inverse agonist, increase of basal cAMP, read-out: EC50 at MT1

T1 sequence (P48039 whole entry): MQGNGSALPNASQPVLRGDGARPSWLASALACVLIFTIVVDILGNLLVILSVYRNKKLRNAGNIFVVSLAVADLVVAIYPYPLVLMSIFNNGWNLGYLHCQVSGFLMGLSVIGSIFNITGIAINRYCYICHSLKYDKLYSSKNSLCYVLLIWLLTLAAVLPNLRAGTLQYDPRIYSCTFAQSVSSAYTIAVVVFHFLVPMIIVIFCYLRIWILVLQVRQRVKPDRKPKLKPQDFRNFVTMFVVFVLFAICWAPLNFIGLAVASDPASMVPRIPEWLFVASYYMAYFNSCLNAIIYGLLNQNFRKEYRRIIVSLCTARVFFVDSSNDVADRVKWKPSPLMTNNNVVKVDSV

Structure (SMILES) | hMT1 pEC50 (hMT1 [1]) | rate of re-entrainment to the new light-dark cycle (C3H/HeN mice) | off-target agonist activity (318 other GPCRs) | hMT1 Schild slope (hMT1 [1]; [3]) | inverse agonist efficacy (hMT1 [1]) [%] | selectivity for MT1 over MT2 (hMT1 [1]) [fold] | EC50 (hMT1 [1]; [4]) [nM] | Ki (hMT1 [2]; in the absence of GTP) [nM] | Ki (hMT1 [2]; with GTP (100 μM)) [nM] | other results
COc1ccc(Br)c(CNc2cccnc2)c1 [ZINC128734226] | 6.83±0.17 |  |  |  |  |  |  |  |  | Emax (hMT1 [1]; HEK293, FIG. 3F, normalized to maximal melatonin effect, read-out: hMT1 Emax): 79 ± 3%; Emax (hMT1 [1]; HEK293, Table 2, agonist, normalized to melatonin response, read-out: MT1 % Emax (converted)): 79%; Emax (hMT1 [1]; HEK293, Table 4, agonist, read-out: Emax % MT1): 48%; pIC50 MT1 (hMT1 [1]; Table 4, agonist): 6.8
Clc1ccc(CNc2cccc(-c3nnc[nH]3)c2)c(Br)c1 [ZINC555417447] | 7.39±0.10 | decelerated re-entrainment | Neither of the two inverse agonists had significant activity against any of the 318 receptors | 0.98±0.03 | 62 | 50 | 41 | 304 | 7.5 | effect on re-entrainment in MT1KO mouse (C3H/HeN mice; MT1KO): eliminated; effect on re-entrainment in MT2KO mice (C3H/HeN mice; MT2KO): greater deceleration; Emax (hMT1 [1]; HEK293, FIG. 3D-3E, normalized to isoproterenol-stimulated basal activity, read-out: hMT1 Emax): -62 ± 13%; Emax (hMT1 [1]; HEK293, Table 2, cell marked Inverse (inverse agonist), read-out: MT1 % Emax (converted)): 62%; hMT1 pKB (hMT1 [1]; [3]): 7.4±0.1; EC50 (hMT1 [1]; Table 4, IA (inverse agonist), read-out: pEC50 MT1 (IA) (converted)): 50.1 nM
CC(C)c1ccc(CNc2cccc(-c3ncn[nH]3)c2)cc1 [ZINC157673384] | 7.68±0.09 | decelerated re-entrainment | Neither of the two inverse agonists had significant activity against any of the 318 receptors | 0.80±0.04 | 47 | 30 | 21 | 938 | 63 | hMT1 Emax (hMT1 [1]; FIG. 3D-3E, normalized to isoproterenol-stimulated basal activity): −47±12%; hMT1 pA2 (hMT1 [1]; [3]): 7.9±0.1; MT1 % Emax (hMT1 [1]; Table 2, cell marked Inverse (inverse agonist)): 47 ± 12%; pEC50 MT1 (IA) (hMT1 [1]; Table 4, IA (inverse agonist)): 7.7
